Results from ChEMBL document CHEMBL1201862, “PubChem BioAssay data set” (2004).
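A five-concentration, 48-hour dose response in 96-well plates underlies each endpoint, interpolated linearly between surrounding concentrations. GI50 is the concentration that inhibits growth by half.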 The source made the active and inactive calls. Cut-off read from the data, not from the text of the source: active = GI50 up to about 1.1 µM and inactive = higher.

Key:
Assay in all cases: NCI tumour cell line growth inhibition, 48 h
PC-3 = system: PC-3
MDA-MB-231 = system: MDA-MB-231
SK-MEL-2 = system: SK-MEL-2
HOP-92 = system: HOP-92
NCI/ADR-RES = system: NCI/ADR-RES
IGROV-1 = system: IGROV-1
COLO 205 = system: COLO 205
SK-OV-3 = system: SK-OV-3
LOX IMVI = system: LOX IMVI
OVCAR-8 = system: OVCAR-8
SK-MEL-5 = system: SK-MEL-5
OVCAR-5 = system: OVCAR-5
RXF 393 = system: RXF 393
NCI-H23 = system: NCI-H23
TK-10 = system: TK-10
A549 = system: A549
SR = system: SR
RPMI-8226 = system: RPMI-8226
MDA-N = system: MDA-N
NCI-H226 = system: NCI-H226

Row | SMILES | GI50 (PC-3) | GI50 (MDA-MB-231) | GI50 (SK-MEL-2) | GI50 (HOP-92) | GI50 (NCI/ADR-RES) | GI50 (IGROV-1) | GI50 (COLO 205) | GI50 (SK-OV-3) | GI50 (LOX IMVI) | GI50 (OVCAR-8) | GI50 (SK-MEL-5) | GI50 (OVCAR-5) | GI50 (RXF 393) | GI50 (NCI-H23) | GI50 (TK-10) | GI50 (A549) | GI50 (SR) | GI50 (RPMI-8226) | GI50 (MDA-N) | GI50 (NCI-H226)
1 | O=C(NC1CCCCC1)c1nn[nH]c1Cl | > 100 µM (inactive) | > 100 µM (inactive) | > 100 µM (inactive) | > 100 µM (inactive) | > 100 µM (inactive) | > 100 µM (inactive) | > 100 µM (inactive) | > 100 µM (inactive) | > 100 µM (inactive) | > 100 µM (inactive) | > 100 µM (inactive) | > 100 µM (inactive) | > 100 µM (inactive) | > 100 µM (inactive) | > 100 µM (inactive) | > 100 µM (inactive) | – | – | – | –
2 | O=c1cc(-c2ccccc2)nc(-n2[nH]c3c(c2=O)CCCC3)[nH]1 | 5 µM (inactive) | 2.92 µM (inactive) | 2.36 µM (inactive) | 2.85 µM (inactive) | – | 4.53 µM (inactive) | 3.82 µM (inactive) | 17.4 µM (inactive) | – | – | 4.78 µM (inactive) | 92.5 µM (inactive) | 0.656 µM (active) | 7.33 µM (inactive) | 5 µM (inactive) | 4.35 µM (inactive) | 1.03 µM (active) | 4.17 µM (inactive) | 7.29 µM (inactive) | 3.82 µM (inactive)
3 | CCOc1ccc(/C=C2\NC(=S)N(/C=C3\C(=O)Oc4ccccc4C3=O)C2=O)cc1 | 18.1 µM (inactive) | 20.4 µM (inactive) | 17.3 µM (inactive) | 22.8 µM (inactive) | 23.1 µM (inactive) | 24.8 µM (inactive) | 15.2 µM (inactive) | 17.9 µM (inactive) | 28.9 µM (inactive) | 19.4 µM (inactive) | 19.7 µM (inactive) | 40.2 µM (inactive) | 3.84 µM (inactive) | 30 µM (inactive) | 20.2 µM (inactive) | > 10 µM (inactive) | – | – | – | 24.7 µM (inactive)
4 | B.CC(=O)OC1CN2CCC1CC2 (configuration not stated) | > 100 µM (inactive) | > 100 µM (inactive) | > 100 µM (inactive) | – | > 100 µM (inactive) | > 100 µM (inactive) | – | > 100 µM (inactive) | – | > 100 µM (inactive) | > 100 µM (inactive) | > 100 µM (inactive) | > 100 µM (inactive) | > 100 µM (inactive) | > 100 µM (inactive) | > 100 µM (inactive) | > 100 µM (inactive) | – | – | > 100 µM (inactive)
5 | COC(=O)c1c(C)cccc1C1CN=NC12Cc1cccc(C)c1C2=O (configuration not stated) | 20.3 µM (inactive) | – | 32.7 µM (inactive) | 14.8 µM (inactive) | 21.7 µM (inactive) | 27.7 µM (inactive) | 42.7 µM (inactive) | – | 13.6 µM (inactive) | 33.9 µM (inactive) | 17.8 µM (inactive) | 85.7 µM (inactive) | 30.5 µM (inactive) | 32.2 µM (inactive) | 35 µM (inactive) | 18.9 µM (inactive) | 26.7 µM (inactive) | 17.2 µM (inactive) | 33.6 µM (inactive) | 20.9 µM (inactive)
6 | CC(C)(C)OC(=O)N1NC(c2ccccc2)CC1c1ccccc1 (configuration not stated) | – | – | – | 37.7 µM (inactive) | 20.2 µM (inactive) | – | 20 µM (inactive) | 37.6 µM (inactive) | – | 35.3 µM (inactive) | 19.6 µM (inactive) | 28.4 µM (inactive) | 15.8 µM (inactive) | 17.4 µM (inactive) | 37.3 µM (inactive) | 13.8 µM (inactive) | 27.2 µM (inactive) | 35.6 µM (inactive) | 42.6 µM (inactive) | 29.1 µM (inactive)
7 | Cc1cc(OC(=O)NCn2cc(-c3ccccc3)nn2)ccc1Cl | > 100 µM (inactive) | > 100 µM (inactive) | 48.3 µM (inactive) | 67.1 µM (inactive) | 83.4 µM (inactive) | 37.7 µM (inactive) | > 100 µM (inactive) | – | 66.8 µM (inactive) | 92.7 µM (inactive) | > 100 µM (inactive) | > 100 µM (inactive) | – | 96.6 µM (inactive) | > 100 µM (inactive) | 95.5 µM (inactive) | 83 µM (inactive) | 78.2 µM (inactive) | – | > 100 µM (inactive)
8 | O=C(C/N=C(\CN(c1ccccc1)c1ccccc1)Oc1c([N+](=O)[O-])cc([N+](=O)[O-])cc1[N+](=O)[O-])N1CCNCC1 | > 100 µM (inactive) | > 100 µM (inactive) | – | 67.5 µM (inactive) | – | 56.8 µM (inactive) | > 100 µM (inactive) | 0.622 µM (active) | – | 61.7 µM (inactive) | 28.7 µM (inactive) | > 100 µM (inactive) | 69.8 µM (inactive) | > 100 µM (inactive) | > 100 µM (inactive) | > 100 µM (inactive) | > 100 µM (inactive) | > 100 µM (inactive) | > 100 µM (inactive) | > 100 µM (inactive)
9 | Cc1ccc(N2CCc3c(C)c(C#N)c4nc5ccccc5n4c32)cc1 | > 100 µM (inactive) | – | 23.8 µM (inactive) | 10.4 µM (inactive) | > 100 µM (inactive) | 68.1 µM (inactive) | 90.6 µM (inactive) | 59.3 µM (inactive) | > 100 µM (inactive) | 49.3 µM (inactive) | > 100 µM (inactive) | > 100 µM (inactive) | 32.1 µM (inactive) | > 100 µM (inactive) | > 100 µM (inactive) | > 100 µM (inactive) | 2.94 µM (inactive) | – | – | > 100 µM (inactive)
10 | Cc1ccc(-c2n[nH]c(=O)[nH]2)cc1[N+](=O)[O-] | > 100 µM (inactive) | – | > 100 µM (inactive) | > 100 µM (inactive) | > 100 µM (inactive) | > 100 µM (inactive) | > 100 µM (inactive) | – | > 100 µM (inactive) | > 100 µM (inactive) | > 100 µM (inactive) | > 100 µM (inactive) | > 100 µM (inactive) | > 100 µM (inactive) | > 100 µM (inactive) | > 100 µM (inactive) | > 100 µM (inactive) | > 100 µM (inactive) | > 100 µM (inactive) | > 100 µM (inactive)
11 | CC[C@@H]1CC[C@@H]2[C@H](CC[C@]3(C)[C@@H](OS(=O)(=O)c4ccc(C)cc4)CC[C@@H]23)[C@H]1COS(=O)(=O)c1ccc(C)cc1 | > 100 µM (inactive) | – | – | > 100 µM (inactive) | > 100 µM (inactive) | > 100 µM (inactive) | – | – | > 100 µM (inactive) | > 100 µM (inactive) | > 100 µM (inactive) | – | > 100 µM (inactive) | – | > 100 µM (inactive) | > 100 µM (inactive) | > 100 µM (inactive) | > 100 µM (inactive) | > 100 µM (inactive) | > 100 µM (inactive)
12 | COc1cc(OC)c2c3c(OC)cc(OC)c4c(=O)c(O)c(C[C@@H](C)O)c(c5c(C[C@@H](C)O)c(O)c(=O)c1c25)c43 | – | 1.89 µM (inactive) | 19 µM (inactive) | 14.5 µM (inactive) | 30.3 µM (inactive) | 16.6 µM (inactive) | 3.72 µM (inactive) | 62.2 µM (inactive) | 12.6 µM (inactive) | 19.8 µM (inactive) | 14.2 µM (inactive) | 30.6 µM (inactive) | 22.4 µM (inactive) | 19 µM (inactive) | 53 µM (inactive) | 36.7 µM (inactive) | – | – | 18.7 µM (inactive) | 19.6 µM (inactive)
13 | C=C(C)[C@@]1(O)O[C@H]2C[C@@]3(C)OC(=CC3=O)/C(C)=C\[C@@H]3OC(=O)[C@@]1(C)[C@H]32 | 16.3 µM (inactive) | 17 µM (inactive) | 14 µM (inactive) | 20.4 µM (inactive) | 13.1 µM (inactive) | 15 µM (inactive) | 16 µM (inactive) | 47.4 µM (inactive) | 6.31 µM (inactive) | 27 µM (inactive) | 13.3 µM (inactive) | 14 µM (inactive) | 11.1 µM (inactive) | 15.3 µM (inactive) | 22.9 µM (inactive) | 29.2 µM (inactive) | 6.97 µM (inactive) | 7.94 µM (inactive) | – | 39.3 µM (inactive)
14 | CC(C)(O)CCC(O)C(C)(O)C1CCC2(O)C3=CC(=O)C4(O)CC(O)C(O)CC4(C)C3CCC12C.CC(C)(O)CCC(O)C(C)(O)C1CCC2(O)C3=CC(=O)C4CC(O)C(O)CC4(C)C3CCC12C (configuration not stated) | > 100 µM (inactive) | > 100 µM (inactive) | > 100 µM (inactive) | > 100 µM (inactive) | > 100 µM (inactive) | > 100 µM (inactive) | > 100 µM (inactive) | > 100 µM (inactive) | > 100 µM (inactive) | > 100 µM (inactive) | > 100 µM (inactive) | > 100 µM (inactive) | > 100 µM (inactive) | > 100 µM (inactive) | > 100 µM (inactive) | > 100 µM (inactive) | > 100 µM (inactive) | – | – | > 100 µM (inactive)
15 | O=C1[C@H](O)[C@@H]2CCC[C@@]23CCCN13 | – | – | – | > 100 µM (inactive) | > 100 µM (inactive) | > 100 µM (inactive) | > 100 µM (inactive) | > 100 µM (inactive) | > 100 µM (inactive) | > 100 µM (inactive) | > 100 µM (inactive) | > 100 µM (inactive) | > 100 µM (inactive) | > 100 µM (inactive) | > 100 µM (inactive) | > 100 µM (inactive) | > 100 µM (inactive) | > 100 µM (inactive) | > 100 µM (inactive) | > 100 µM (inactive)
16 | COc1cc([C@@H]2c3cc4c(c(O)c3C[C@H]3COC(=O)[C@@H]32)OCO4)cc(OC)c1O | – | – | 0.027 µM (active) | < 0.02 µM (active) | 0.0231 µM (active) | 0.0277 µM (active) | 0.0281 µM (active) | – | – | 0.0249 µM (active) | < 0.02 µM (active) | 29.2 µM (inactive) | 0.233 µM (active) | 0.0853 µM (active) | 0.00762 µM (active) | < 0.02 µM (active) | 0.00307 µM (active) | 0.026 µM (active) | – | < 0.02 µM (active)
